Measured values as given in patent US9034895B2, “Composition and methods for treating glioblastoma” (University of Washington Through its Center for …, priority 2010, dated 2015).

Columns and labels:
Format in all cases: cell-based
[1] = system: T98g cells; test: Cell viability assay (WST-1), toxic potency and efficacy at T98g cells; settings: Homo sapiens, 72 h
Protocol: Cells were plated media supplemented with 10% serum in 96-well plates (10^4 cells per wellI; 0.1 ml per well). Once they reached ˜70% confluence, they were rinsed with PBS and kept for an additional 24 hrs in media supplemented with 1% serum, at which time drugs or vehicle (DMSO, 0.1%, prepared in 10 μl serum-free media) were directly added to each well. After 3 days, cell viability was assessed using the Cell Proliferation Reagent WST-1 (Roche, Indianapolis, Ind.). Briefly, WST-1 reagent (10 μl) was added to each well for 3 hrs at 37° C. with 5% CO2 and WST-1 products were read at 450 nm using Packard SpectraCount™.
Because the strongest toxic effect of WIN55212-2 was measured in T98g cells, these cells are used as readout to study the structure activity relationship (SAR) of AAI compounds at inducing cell death through AAI receptors.

[2] = system: cardiac and motorneuron progenitors; test: Toxic profile in progenitor cells; settings: compared with astrocytoma cell lines
Protocol: JWH-451 was tested for toxicity in cells expressing GPR124.

[3] = biological target: T1, GPR124 (Homo sapiens, UniProt Q96PE1); test: siRNA knock-down of GPCR candidates, JWH-451 toxicity in T98g cells; settings: JWH-451 1 μM, siRNA targeting GPR124, viability after three days
T1 construct: endogenous in cells; host or cells: T98g human astrocytoma cells
T1 sequence (Q96PE1 34-1338): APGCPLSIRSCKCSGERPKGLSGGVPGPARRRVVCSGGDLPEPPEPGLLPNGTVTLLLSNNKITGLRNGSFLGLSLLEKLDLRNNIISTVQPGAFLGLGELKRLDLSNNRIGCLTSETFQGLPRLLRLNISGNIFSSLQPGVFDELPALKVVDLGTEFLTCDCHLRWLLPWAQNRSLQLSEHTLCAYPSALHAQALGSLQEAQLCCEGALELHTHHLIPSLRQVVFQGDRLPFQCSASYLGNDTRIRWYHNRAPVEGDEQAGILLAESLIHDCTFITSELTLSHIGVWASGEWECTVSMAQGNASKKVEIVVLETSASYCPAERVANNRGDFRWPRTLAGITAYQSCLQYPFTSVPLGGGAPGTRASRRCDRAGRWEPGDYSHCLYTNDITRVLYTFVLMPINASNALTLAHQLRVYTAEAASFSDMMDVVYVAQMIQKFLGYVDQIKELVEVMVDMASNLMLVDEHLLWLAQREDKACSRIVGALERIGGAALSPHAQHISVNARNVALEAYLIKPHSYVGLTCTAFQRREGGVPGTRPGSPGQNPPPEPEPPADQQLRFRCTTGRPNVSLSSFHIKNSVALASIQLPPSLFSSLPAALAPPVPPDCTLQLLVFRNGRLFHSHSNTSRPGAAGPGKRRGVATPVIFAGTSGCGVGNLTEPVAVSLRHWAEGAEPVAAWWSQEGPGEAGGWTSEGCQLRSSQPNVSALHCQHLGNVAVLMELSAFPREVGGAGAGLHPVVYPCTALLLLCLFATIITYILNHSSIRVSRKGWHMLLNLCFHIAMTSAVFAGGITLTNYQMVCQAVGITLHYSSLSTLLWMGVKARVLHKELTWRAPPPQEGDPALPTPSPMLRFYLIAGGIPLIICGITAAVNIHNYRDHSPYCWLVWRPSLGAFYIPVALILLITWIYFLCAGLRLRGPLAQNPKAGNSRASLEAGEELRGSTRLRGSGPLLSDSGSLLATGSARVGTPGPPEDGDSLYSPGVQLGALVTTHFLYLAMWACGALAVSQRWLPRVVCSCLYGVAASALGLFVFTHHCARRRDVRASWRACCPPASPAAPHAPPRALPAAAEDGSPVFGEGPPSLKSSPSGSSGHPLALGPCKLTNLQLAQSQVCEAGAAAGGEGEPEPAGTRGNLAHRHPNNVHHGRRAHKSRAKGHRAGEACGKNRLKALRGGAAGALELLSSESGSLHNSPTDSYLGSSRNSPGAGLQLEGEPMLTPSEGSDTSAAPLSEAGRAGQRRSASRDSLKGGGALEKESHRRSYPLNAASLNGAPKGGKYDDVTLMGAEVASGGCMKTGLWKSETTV
Protocol: To determine which of the gene candidate encodes for AAI receptors, an siRNA approach is used to knock down each candidate individually to determine which one prevents the toxic effect of JWH-451 and thus encodes for AAI receptors. The prediction is that knocking down AAI receptors prevents the cell death induced by JWH-451. T98g cells were treated with siRNA targeting each of the 39 GPCR gene candidates individually. The first experiment was designed to knock down each GPCR candidate using a mixture of 3 siRNAs thus maximize genetic targeting efficacy. Thus, cells were incubated with siRNA mixtures and then treated with JWH-451 (1 μM) and cell viability measured after three days. Only one mixture of siRNAs (that targeting GPR124) decreased the toxicity of JWH-451. […] Two of the three siRNAs knocked-down GPR124 expression by more than 80% over 4 days (FIG. 3b). […] The killing effect induced by JWH-451 is mediated by GPR124, a AAI receptor.

Q: For CCn1c(C)c(C(=O)c2ccc(C)c3ccccc23)c2ccccc21 [JWH-451, 1-Ethyl-2-methyl-3-(4-methyl-1-napthoyl)indole], which Emax ([1]; read-out: Toxic potency at T98g cells (percent efficacy)) is on record?
A: 81%

Q: What about the EC50 ([1]; read-out: Toxic potency at T98g cells potency μM) of the same compound?
A: 1.1 µM

Q: What about the “toxic effect on cardiac and motorneuron progenitors” value [2] of the same compound?
A: much less toxic effect

Q: And the “JWH-451-induced killing of T98g cells when GPR124 mRNA expression is reduced” value [3]?
A: reduced
